Like-named read-outs stand apart in the source and are kept apart here.
Columns and labels:
[1] = Microsomal clearance and half-life; type: in vitro ADME, human; details: for human liver microsomes Clint / half-life at 1 µM: 1 μM compound, 0.4 mg mL^–1 protein; for half-life at 1 µM: human, pooled human liver microsomes, pH 7.4, read-out: human liver microsomes t1/2
Description: Clearance, half-life and plasma protein binding were assayed at TGC LifeScience, Kolkata, India, as described before.[36] Test compounds were incubated in duplicate in 96-well plates at 1 μM concentration with pooled human liver microsomes in 0.1 M phosphate buffer, pH 7.4 (0.4 mg mL^–1 final protein concentration; XenoTech, Lenexa, KS) in the presence and absence of 1 mM NADPH. Metabolism reactions were stopped by addition of 300 μL of ice-cold acetonitrile containing carbamazepine at 0.0236 μg mL^–1 as an internal standard, collection and analysis of the supernatant by LC–MS/MS (Agilent Rapid Resolution HPLC, AB SCIEX 4500 MS). The relative loss of the test compound over time was used to determine the first order rate constant for calculation of the in vitro intrinsic clearance and half-life.[37] Plasma protein binding was determined by ultracentrifugation from pooled human plasma spiked with 5 μM test compound. Aliquots were transferred immediately (total plasma concentration) or after 1 h at 37 °C (protein bound fraction) to ice-cold acetonitrile containing 0.0236 μg mL^–1 carbamazepine as an internal standard, ultracentrifuged for 4 h at 37 °C (Beckman Optima L-80XP), and analyzed by LC–MS/MS (Agilent Rapid Resolution HPLC, AB SCIEX 4500 QTRAP MS).

PfFNT [2] = biological target: T1, PfFNT (Plasmodium falciparum, UniProt O77389); experiment: Fluorescence cross-correlation spectroscopy (FCCS) competition binding to solubilized PfFNT-GFP
T1 construct: expressed in transfected cells; membranes solubilized
T1 sequence (O77389 1-309): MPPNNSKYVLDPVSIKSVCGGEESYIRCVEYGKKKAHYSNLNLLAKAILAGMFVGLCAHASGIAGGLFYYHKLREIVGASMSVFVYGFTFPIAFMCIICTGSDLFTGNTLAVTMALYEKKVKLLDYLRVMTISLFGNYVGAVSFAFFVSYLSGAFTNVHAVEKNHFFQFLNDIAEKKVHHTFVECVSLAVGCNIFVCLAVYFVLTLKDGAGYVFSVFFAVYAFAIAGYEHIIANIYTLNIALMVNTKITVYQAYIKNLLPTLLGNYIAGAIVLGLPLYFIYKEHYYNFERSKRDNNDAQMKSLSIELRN
Procedure, shortened: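 Solubilized membranes from stably transfected cells expressing C-terminally GFP-tagged PfFNT were competed against BH267.meta-DY647 tracer, with competitor titrated from 100 pM to 100 μM. IC50 came from the dual-labeled complex concentration, recorded 10 × 5 s with 488/633 nm excitation; Ki calculated by Cheng-Prusoff from the tracer KD.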

P. berghei = P. berghei mouse model, 4 day Peters' test; type: in vivo, Plasmodium berghei (mice)
Description: The animal experiments against P. berghei were carried out at the Swiss Tropical and Public Health Institute adhering to local and national regulations of laboratory animal welfare in Switzerland (awarded permission no. BL530). Protocols are regularly reviewed and revised following approval by the local authority (Amt für Lebensmittelsicherheit and Veterinärwesen Basel-Land). Female mice infected with GFP-expressing P. berghei (ANKA strain, donated by A. P. Waters and C. J. Janse, Leiden University, The Netherlands) were analyzed for in vivo efficacy of 7e and 8a as described previously.[18],[19] Parasitemia was determined using flow cytometry with a detection limit of 1 parasite in 1000 erythrocytes. Compound activity was calculated as the difference between the mean parasitemia for the control and treated groups (n = 3, each) expressed relative to the control group. 7e and 8a were suspended in 70/30 Tween 80/ethanol, diluted 10-fold with water and administered orally 4, 24, 48, and 72 h after infection. 7e was analyzed at 30, 10, and 3 mg kg^–1, 8a at 50, and 10 mg kg^–1. In vivo efficacy against P. falciparum was conducted at The Art of Discovery, TAD, Bizkaia, Spain, according to the previously described standard assay.[16],[17]

PfFNT [3] = biological target: T1, PfFNT; experiment: Yeast-based PfFNT 14C-lactate transport assay; type: cell-based
Description: Lactate transport functionality of PfFNT was assayed as described before.[4] Briefly, Saccharomyces cerevisiae W303-1A jen1Δady2Δcells[32] (MATa, can1-100, ade2-loc, his3-11-15, leu2-3,-112, trp1-1-1, ura3-1, jen1::kanMX4, ady2::hphMX4) kindly provided by M. Casal expressing PfFNT was grown at 29 °C to an OD600 of 1 (±0.1). Harvested cells were resuspended to an OD600 of 50 (±5) in 50 mM HEPES/Tris, pH 6.8 (±0.1). 10–15 min prior to the assay, 80 μL of yeast suspension were added to 1 μL of DMSO with or without inhibitor in a 1.5 mL reaction tube at 18 °C. Twenty μL of L-lactate solution spiked with [1-^14C]-L-lactate (Hartmann Analytic) was added yielding a 1 mM inward gradient with 0.04 μCi label. Transport was stopped after 30 s by abrupt dilution with 1 mL of ice-cold water, vacuum filtration via GF/C filter membranes (Whatman), and washing with 7 mL of ice-cold water. The radio label was analyzed by liquid scintillation counting in 3 mL of scintillation cocktail (Rotiszint eco plus, Carl Roth) using a Packard TriCarb 2900 TR (PerkinElmer Inc.).
Transport assays in yeast were done in triplicate biological replicates. At least nine technical replicates were measured around the IC50 value, concentrations with no or full inhibition were determined from at least three technical replicates. EC50-values were determined from 2 to 4 biological replicates. IC50 and EC50 curves were fitted by the Hill equation with variable slope (Graph Pad Prism 10). Error bars denote ± SEM (for n ≥ 3) or ± range (for n = 2). For the EC50-value of 7a the error of the fitting of the curve is given. Cytotoxicity was determined from biological triplicates; error is shown as SEM.

[4] = oral 10 mg kg^–1 day^–1, four consecutive days

SMILES	human liver microsomes Clint [1] [mL min^–1 kg^–1]	half-life at 1 µM [1] [h]	Ki (PfFNT [2]) [nM]	activity (reduction of parasitemia relative to untreated) (P. berghei; oral 3 mg kg^–1 day^–1, four consecutive days) [%]	activity (reduction of parasitemia relative to untreated) (P. berghei; [4]) [%]	activity (reduction of parasitemia relative to untreated) (P. berghei; oral 30 mg kg^–1 day^–1, four consecutive days) [%]	IC50 (PfFNT [3]; 14C-lactate transport, PfFNT wild type, read-out: IC50 (transport, yeast)) [nM]	microsomal clearance, times faster than that of 2 ([1]; human liver microsomes) [times]	activity (parasites cleared) (P. berghei; oral 50 mg kg^–1 day^–1, four consecutive days) [%]	IC50 (PfFNT [3]) [nM]
CCCNc1ccc(C(=O)/C=C(\O)C(F)(F)C(F)(F)F)cn1 [7e, 4,4,5,5,5-Pentafluoro-3-hydroxy-1-(6-(propylamino)pyridin-3-yl)pent-2-en-1-one]	462.00	0.05	22 ± 8	3.5	15.4	34.2	200 ± 20	–	–	–
CC(=O)Nc1ccc(C(=O)/C=C(\O)C(F)(F)C(F)(F)F)cn1 [8a, N-[5-(4,4,5,5,5-Pentafluoro-3-hydroxypent-2-enoyl)pyridin-2-yl]acetamide]	10.64	2.17	35 ± 8	–	76.0	–	–	2.7	99.7	210 ± 10

— publication PMC11513924, “Addressing the Intracellular Vestibule of the Plasmodial Lactate Transporter PfFNT by p-Substituted Inhibitors Amplifies In Vitro Activity” (Journal of Medicinal Chemistry, 2024)
